In patent US20210163976A1, “GENETICALLY ALTERED PLANTS EXPRESSING HETEROLOGOUS RECEPTORS THAT RECOGNIZE LIPO-CHITOOLIGOSACCHARIDES” (Aarhus Universitet, priority 2018, published 2021):
pKd: −log10 of the molar value. Entries after “also recorded” stand apart in the source; their conditions may differ. Each block holds one compound with its values, some of them ahead of it.

How the values were obtained:
[1] = biological target: T1, Medicago NFP ectodomain (NFP-ECD, WT) (Medicago truncatula, UniProt Q0GXS4); test: Biolayer interferometry (BLI) binding of NFP-ECD to immobilized biotinylated ligands; details: for reduction of binding to NFP-ECD compared to wild type S. meliloti LCO-IV: FIGS. 15D-15E; for binding to NFP of mutated LCOs: FIG. 3B, Example 4
T1 construct: The Medicago truncatula NFP ectodomain (residues 28-246) was codon-optimized; AcMNPV gp67 signal peptide (replaces native signal peptide 1-27) (N); made in house; host or cells: Sf9 (Spodoptera frugiperda), baculovirus, secreted into medium
T1 sequence (Q0GXS4 28-246): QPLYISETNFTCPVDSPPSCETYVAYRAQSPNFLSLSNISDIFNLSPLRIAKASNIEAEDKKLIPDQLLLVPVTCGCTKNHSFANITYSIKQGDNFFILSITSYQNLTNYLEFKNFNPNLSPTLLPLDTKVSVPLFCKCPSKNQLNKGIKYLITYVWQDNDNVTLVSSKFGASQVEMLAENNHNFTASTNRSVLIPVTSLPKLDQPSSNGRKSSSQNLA
Protocol: (§1) Expression and purification of Medicago NFP ectodomain: The Medicago truncatula NFP ectodomain (residues 28-246) was codon-optimized for insect cell expression (Genscript, Piscataway, USA) and cloned into the pOET4 baculovirus transfer vector (Oxford Expression Technologies). The native NFP signal peptide (residues 1-27, predicted by SignalP 4.1) was replaced with the AcMNPV gp67 signal peptide to facilitate secretion and a hexa-histidine tag was added to the C-terminus. Point mutants of NFP were engineered using site-directed mutagenesis. Recombinant baculoviruses were produced in Sf9 cells (Spodoptera frugiperda) using the FlashBac Gold kit (Oxford Expression technologies) according to the manufacturer's instructions with Lipofectin (ThermoFisher Scientific) as a transfection reagent. Protein expression was performed as follows. Suspension-cultured Sf9 cells were maintained with shaking at 299 K in serum-free MAX-XP (BD-Biosciences, discontinued) or HyClone SFX (GE Healthcare) medium supplemented with 1% Pen-Strep (10000 U/ml, Life technologies) and 1% CD lipid concentrate (Gibco). Protein expression was induced by adding recombinant passage 3 virus once the Sf9 cells reached a cell density of 1.0*10^7^6 cells/ml. After 5-7 days of expression, medium supernatant containing NFP ectodomains was harvested by centrifugation. This was followed by an overnight dialysis step against 50 mM Tris-HCl pH 8, 200 mM NaCl at 277 K. The NFP ectodomain was enriched by two subsequent steps of Ni-IMAC purification (HisTrap excel/HisTrap HP, both GE Healthcare). For crystallography experiments, N-glycans were removed using the endoglycosidase PNGase F (1:15 (w/w), room temperature, overnight). As a final purification step, NFP ectodomain was purified by SEC on a Superdex 200 10/300 or HiLoad Superdex 200 16/600 (both GE Healthcare) in phosphate buffered saline at pH 7.2 supplemented to a total of 500 mM NaCl (for binding assays) or 50 mM Tris-HCl, 200 mM NaCl (for crystallography). NFP ectodomain elutes as a single, homogeneous peak corresponding to a monomer. Point mutated versions of NFP were expressed and purified following the same protocol.
(§2) Biolayer interferometry (BLI): Binding of NFP and mutated versions of NFP to ligands was measured on an Octet RED 96 system (Pall ForteBio). The ligands used were LCO-IV (from S. meliloti), LCO-V (from S. meliloti), LCO-V (from M. loti), and C06 (from M. loti). S. meliloti LCO consists of a tetrameric/pentameric N-acetylglucosamine backbone that is 0-sulfated on the reducing terminal residue, 0-acetylated on the non-reducing terminal residue, and mono-N-acylated by unsaturated C16 acyl groups. M. loti LCO is a pentameric N-acetylglucosamine with a cis-vaccenic acid and a carbamoyl group at the non-reducing terminal residue together with a 2,4-O-acetylfucose at the reducing terminal residue. Biotinylated ligand conjugates were immobilized on streptavidin biosensors (kinetic quality, Pall ForteBio) at a concentration of 125-250 nM for 5 minutes. The binding assays using the S. meliloti ligands (LCO-IV and LCO-V) were replicated seven times, while the binding assays using the M loti ligands (LCO-V and C06) were replicated six times. Data analysis was performed in GraphPad Prism 6 software (GraphPad Software, Inc.). Equilibrium dissociation constants derived from the steady-state were determined by applying a non-linear regression (one site, specific binding) to the response at equilibrium plotted against the protein concentration. Kinetic parameters were determined by non-linear regression (association followed by dissociation) on the subtracted data.
(§3) Mutated lipochitooligosaccharide (LCO) ligands: S. meliloti LCO consists of a tetrameric/pentameric N-acetylglucosamine backbone that is O-sulfated on the reducing terminal residue, O-acetylated on the non-reducing terminal residue, and mono-N-acylated by unsaturated C16 acyl groups. […]

[2] = biological target: T2, Medicago truncatula NFP ectodomain (NFP-ECD, residues 28-246), wild type, SEQ ID NO: 1 (Medicago truncatula, UniProt Q0GXS4); test: Biolayer interferometry (BLI) binding of NFP / NFP-ECD to immobilized LCO and CO ligands; details: for Binding of mutated LCOs to NFP (in words): ligand binding tests, FIG. 3B
T2 construct: The Medicago truncatula NFP ectodomain (residues 28-246); AcMNPV gp67 signal peptide (replaces native signal peptide 1-27) (N); hexa-histidine tag (C); made in house; host or cells: Sf9 cells (Spodoptera frugiperda), baculovirus
Protocol: as §1, §2, §3

[3] = biological target: T2, Medicago truncatula NFP ectodomain (NFP-ECD, residues 28-246), wild type, SEQ ID NO: 1; test: Microscale thermophoresis (MST) binding of NFP to carbohydrate ligands
Protocol: as §1, with “Point mutated versions of NFP were expressed and purified following the same protocol.” left out

[4] = biological target: T3, NFP L147D L154D ectodomain (Medicago truncatula, UniProt Q0GXS4, L147D/L154D); test: BLI binding of hydrophobic patch mutant NFP-ECD to S. meliloti LCO-IV
T3 construct: The Medicago truncatula NFP ectodomain (residues 28-246) was codon-optimized; AcMNPV gp67 signal peptide (replaces native signal peptide 1-27) (N); made in house; host or cells: Sf9 (Spodoptera frugiperda), baculovirus, secreted into medium
Description: (§4) Creation of NFP point mutations: The NFP leucine residues L147 and L154 were replaced with aspartate residues. Aspartate is similar in size to leucine, but negatively charged where leucine is hydrophobic. Point mutants of NFP were engineered using site-directed mutagenesis. In particular, a double-mutated NFP was engineered where the leucine residues L147 and L154 were replaced with aspartate residues to create the mutant NFP L147D L154D. Point mutated versions of NFP were expressed and purified as described in Example 1.
(§5) NFP mutant binding assays: The binding assay using NFP wild type (WT) protein was replicated seven times, while the binding assay using the NFP mutant NFP L147D L154D was replicated four times.
Biolayer interferometry (BLI): Binding of NFP WT and NFP L147D/L154D mutant to S. meliloti LCO-IV was measured on an Octet RED 96 system (Pall ForteBio). S. meliloti LCO consists of a tetrameric/pentameric N-acetylglucosamine backbone that is O-sulfated on the reducing terminal residue, 0-acetylated on the non-reducing terminal residue, and mono-N-acylated by unsaturated C16 acyl groups. Biotinylated ligand conjugates were immobilized on streptavidin biosensors (kinetic quality, Pall ForteBio) at a concentration of 125-250 nM for 5 minutes. The binding assays were replicated 7 times for the NFP WT, and 4 times for the NFP L147D/L154D mutant. Data analysis was performed in GraphPad Prism 6 software (GraphPad Software, Inc.). Equilibrium dissociation constants derived from the steady-state were determined by applying a non-linear regression (one site, specific binding) to the response at equilibrium plotted against the protein concentration. Kinetic parameters were determined by non-linear regression (association followed by dissociation) on the subtracted data. Binding ofA. thaliana CERK1 (AtCERK1) to chitopentaose (C05) and chitooctaose (C08) was measured in the same way.

[5] = biological target: T4, Medicago truncatula NFP ectodomain (NFP-ECD) variant L147D/L154D (parent SEQ ID NO: 1) (Medicago truncatula, UniProt Q0GXS4, L147D/L154D); test: Biolayer interferometry (BLI) binding of hydrophobic patch mutant NFP L147D/L154D to S. meliloti LCO-IV
T4 construct: The Medicago truncatula NFP ectodomain (residues 28-246); AcMNPV gp67 signal peptide (replaces native signal peptide 1-27) (N); hexa-histidine tag (C); made in house; host or cells: Sf9 cells (Spodoptera frugiperda), baculovirus
Protocol: as §1, §4, §5
Biolayer interferometry (BLI): Binding of NFP WT and NFP L147D/L154D mutant to S. meliloti LCO-IV was measured on an Octet RED 96 system (Pall ForteBio). […] Equilibrium dissociation constants derived from the steady-state were determined by applying a non-linear regression (one site, specific binding) to the response at equilibrium plotted against the protein concentration. Kinetic parameters were determined by non-linear regression (association followed by dissociation) on the subtracted data. […]

T3 sequence (Q0GXS4 28-246 L147D/L154D): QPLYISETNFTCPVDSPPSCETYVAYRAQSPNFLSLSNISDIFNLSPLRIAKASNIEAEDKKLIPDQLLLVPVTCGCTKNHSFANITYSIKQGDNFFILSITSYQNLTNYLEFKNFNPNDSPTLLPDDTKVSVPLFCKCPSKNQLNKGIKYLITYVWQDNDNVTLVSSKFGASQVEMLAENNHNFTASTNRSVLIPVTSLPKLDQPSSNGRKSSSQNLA
T4 sequence (Q0GXS4 28-246 L147D/L154D): as above

SMILES: CCCCCC/C=C\CCCCC/C=C/C(=O)N[C@H]1[C@H](O[C@H]2[C@H](O)[C@@H](NC(C)=O)[C@H](O[C@H]3[C@H](O)[C@@H](NC(C)=O)[C@H](O[C@H]4[C@H](O)[C@@H](NC(C)=O)C(O)O[C@@H]4CO)O[C@@H]3CO)O[C@@H]2CO)O[C@H](COC(C)=O)[C@@H](O)[C@@H]1O (stereo partly drawn) [nodH-LCO-IV]
- reduction of binding to NFP-ECD compared to wild type S. meliloti LCO-IV ([1]; BLI): more than 21 fold
- binding to NFP of mutated LCOs [1]: Dramatically reduced binding
- Binding of mutated LCOs to NFP (in words) [2]: Dramatically reduced binding

- Binding to NFP (in words) [3]: not able to bind
SMILES: OC[C@H]1O[C@H](O[C@H]2[C@H](O)[C@@H](O)[C@@H](O[C@H]3[C@H](O)[C@@H](O)[C@@H](O[C@H]4[C@H](O)[C@@H](O)[C@@H](O[C@H]5[C@H](O)[C@@H](O)[C@@H](O[C@H]6[C@H](O)[C@@H](O)C(O)O[C@@H]6CO)O[C@@H]5CO)O[C@@H]4CO)O[C@@H]3CO)O[C@@H]2CO)[C@H](O)[C@@H](O)[C@@H]1O (stereo partly drawn) [maltohexaose]

- pKd ([3]; read-out: Dissociation constant (Kd)): 3.82
SMILES: CC(=O)N[C@H]1[C@H](O[C@H]2[C@H](O)[C@@H](NC(C)=O)C(O)O[C@@H]2CO)O[C@H](CO)[C@@H](O[C@@H]2O[C@H](CO)[C@@H](O[C@@H]3O[C@H](CO)[C@@H](O)[C@H](O)[C@H]3NC(C)=O)[C@H](O)[C@H]2NC(C)=O)[C@@H]1O (stereo partly drawn) [CO4]

SMILES: CC(=O)N[C@H]1[C@H](O[C@H]2[C@H](O)[C@@H](NC(C)=O)[C@H](O[C@H]3[C@H](O)[C@@H](NC(C)=O)C(O)O[C@@H]3CO)O[C@@H]2CO)O[C@H](CO)[C@@H](O[C@@H]2O[C@H](CO)[C@@H](O[C@@H]3O[C@H](CO)[C@@H](O[C@@H]4O[C@H](CO)[C@@H](O)[C@H](O)[C@H]4NC(C)=O)[C@H](O)[C@H]3NC(C)=O)[C@H](O)[C@H]2NC(C)=O)[C@@H]1O (stereo partly drawn) [M. loti C06]
- NFP binding (BLI) ([1]; BLI, FIG. 2B, six replicates): not detected; also recorded: does not bind
- Binding to NFP (in words) ([2]; BLI, FIG. 2B, six replicates): neither was NFP binding; also recorded: does not bind

SMILES: CCCCCC/C=C\CCCCC/C=C/C(=O)N[C@H]1[C@H](O[C@H]2[C@H](O)[C@@H](NC(C)=O)[C@H](O[C@H]3[C@H](O)[C@@H](NC(C)=O)[C@H](O[C@H]4[C@H](O)[C@@H](NC(C)=O)C(O)O[C@@H]4COS(=O)(=O)O)O[C@@H]3CO)O[C@@H]2CO)O[C@H](COC(C)=O)[C@@H](O)[C@@H]1O (stereo partly drawn) [S. meliloti LCO-IV]
- affinity compared to NFP WT ([4]; FIG. 4B): approximately two times lower affinity
- association (Kon) compared to NFP WT ([4]; FIG. 4B): almost unaffected
- association rate (kon) faster than WT NFP-ECD ([4]; FIGS. 16A-16C): 4.5 fold
- dissociation rate (koff) increase compared to WT NFP-ECD ([4]; FIGS. 16A-16C): 59 fold
- lower affinity compared to WT NFP-ECD ([4]; FIGS. 16A-16C): 13 fold
- Affinity change versus NFP WT (in words) ([5]; FIG. 4B): approximately two times lower affinity
- Association (Kon) change versus NFP WT (in words) ([5]; FIG. 4B): almost unaffected
- Dissociation (Koff), times faster than NFP WT ([5]; FIG. 4B): approximately 15 times
- Association rate (kon), fold faster than WT NFP-ECD ([5]; FIGS. 16A-16C): 4.5 fold
- Dissociation rate (koff), fold increase compared to WT NFP-ECD ([5]; FIGS. 16A-16C): 59 fold

SMILES: CCCCCC/C=C\CCCCCCCCCC(=O)N[C@H]1[C@H](O[C@H]2[C@H](O)[C@@H](NC(C)=O)[C@H](O[C@H]3[C@H](O)[C@@H](NC(C)=O)[C@H](O[C@H]4[C@H](O)[C@@H](NC(C)=O)C(O)O[C@@H]4COS(=O)(=O)O)O[C@@H]3CO)O[C@@H]2CO)O[C@H](COC(C)=O)[C@@H](O)[C@@H]1O (stereo partly drawn) [nodFE-LCO-IV]
- binding to NFP of mutated LCOs [1]: reduced NFP binding
- NFP-ECD binding (BLI) ([1]; further BLI assays, FIGS. 15B-15E): no significant binding
- Binding to NFP-ECD (in words) ([2]; further BLI assays, FIGS. 15B-15E, analyte 1.56-100 μM): no significant binding
- Binding of mutated LCOs to NFP (in words) [2]: reduced NFP binding

SMILES: CCCCCC/C=C\CCCCC/C=C/C(=O)N[C@H]1[C@H](O[C@H]2[C@H](O)[C@@H](NC(C)=O)[C@H](O[C@H]3[C@H](O)[C@@H](NC(C)=O)[C@H](O[C@H]4[C@H](O)[C@@H](NC(C)=O)C(O)O[C@@H]4COS(=O)(=O)O)O[C@@H]3CO)O[C@@H]2CO)O[C@H](CO)[C@@H](O)[C@@H]1O (stereo partly drawn) [nodL-LCO-IV]
- reduction of binding to NFP-ECD compared to wild type S. meliloti LCO-IV ([1]; BLI): more than 10 fold
- binding to NFP of mutated LCOs [1]: Dramatically reduced binding
- Binding of mutated LCOs to NFP (in words) [2]: Dramatically reduced binding
